Measured values taken from PubChem BioAssay (NCI).
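Method: 48-hour compound exposure of cells in 96-well plates, five concentrations, linear interpolation of endpoints. At the TGI there is no net growth.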

Columns and labels:
Experiment in all cases: NCI anticancer screen, dose series, 48 h
SR leukemia = system: SR leukemia
HCC-2998 colon = system: HCC-2998 colon
CCRF-CEM leukemia = system: CCRF-CEM leukemia
EKVX NSCLC = system: EKVX NSCLC
MCF7 breast = system: MCF7 breast
OVCAR-5 ovarian = system: OVCAR-5 ovarian
HT29 colon = system: HT29 colon
NCI-H226 lung = system: NCI-H226 lung
BT-549 breast = system: BT-549 breast
HOP-62 NSCLC = system: HOP-62 NSCLC
A549 NSCLC = system: A549 NSCLC
HCT-15 colon = system: HCT-15 colon
PC-3 prostate = system: PC-3 prostate
SN12C renal = system: SN12C renal
MDA-N = system: MDA-N
OVCAR-8 ovarian = system: OVCAR-8 ovarian
K-562 leukemia = system: K-562 leukemia
KM12 colon = system: KM12 colon
HOP-92 NSCLC = system: HOP-92 NSCLC
A498 renal = system: A498 renal
SK-OV-3 ovarian = system: SK-OV-3 ovarian
SF-295 CNS = system: SF-295 CNS
UACC-62 melanoma = system: UACC-62 melanoma
NCI/ADR-RES ovarian = system: NCI/ADR-RES ovarian
LOX IMVI melanoma = system: LOX IMVI melanoma
NCI-H23 lung = system: NCI-H23 lung
RPMI-8226 leukemia = system: RPMI-8226 leukemia
HL-60(TB) leukemia = system: HL-60(TB) leukemia
U251 CNS = system: U251 CNS
HCT-116 colon = system: HCT-116 colon
UO-31 renal = system: UO-31 renal
NCI-H460 lung = system: NCI-H460 lung
SK-MEL-28 melanoma = system: SK-MEL-28 melanoma
ACHN renal = system: ACHN renal
UACC-257 melanoma = system: UACC-257 melanoma
SNB-19 CNS = system: SNB-19 CNS
MDA-MB-435 = system: MDA-MB-435
SW-620 colon = system: SW-620 colon
OVCAR-3 ovarian = system: OVCAR-3 ovarian
CAKI-1 renal = system: CAKI-1 renal
SF-268 CNS = system: SF-268 CNS
SK-MEL-2 melanoma = system: SK-MEL-2 melanoma
TK-10 renal = system: TK-10 renal
786-0 renal = system: 786-0 renal
SF-539 CNS = system: SF-539 CNS
COLO 205 colon = system: COLO 205 colon
T-47D breast = system: T-47D breast
MALME-3M melanoma = system: MALME-3M melanoma
HS 578T breast = system: HS 578T breast
MDA-MB-231 breast = system: MDA-MB-231 breast
MOLT-4 leukemia = system: MOLT-4 leukemia
DU-145 prostate = system: DU-145 prostate
SK-MEL-5 melanoma = system: SK-MEL-5 melanoma
M14 melanoma = system: M14 melanoma
OVCAR-4 ovarian = system: OVCAR-4 ovarian

CC(/C=C/c1ccc([N+](=O)[O-])o1)=N/N1CC(CN2CCOCC2)OC1=O (stereo not given)
TGI (SR leukemia): 50.4 µM | TGI (HCC-2998 colon): > 100 µM | TGI (CCRF-CEM leukemia): 47.3 µM | TGI (EKVX NSCLC): > 100 µM | TGI (MCF7 breast): 27 µM | TGI (OVCAR-5 ovarian): > 100 µM | TGI (HT29 colon): > 100 µM | TGI (NCI-H226 lung): 52.1 µM | TGI (BT-549 breast): 24.2 µM | TGI (HOP-62 NSCLC): > 100 µM | TGI (A549 NSCLC): 98.5 µM | TGI (HCT-15 colon): 40.3 µM | TGI (PC-3 prostate): 68 µM | TGI (SN12C renal): > 100 µM | TGI (MDA-N): 35.6 µM | TGI (OVCAR-8 ovarian): 35.3 µM | TGI (K-562 leukemia): 61.1 µM | TGI (KM12 colon): > 100 µM | TGI (HOP-92 NSCLC): 30.5 µM | TGI (A498 renal): 83.9 µM | TGI (SK-OV-3 ovarian): > 100 µM | TGI (SF-295 CNS): > 100 µM | TGI (UACC-62 melanoma): 52.3 µM | TGI (NCI/ADR-RES ovarian): 95.9 µM | TGI (LOX IMVI melanoma): > 100 µM | TGI (NCI-H23 lung): 49.8 µM | TGI (RPMI-8226 leukemia): 41.9 µM | TGI (HL-60(TB) leukemia): 55.7 µM | TGI (U251 CNS): > 100 µM | TGI (HCT-116 colon): 56.4 µM | TGI (UO-31 renal): 45.4 µM | TGI (NCI-H460 lung): 46.9 µM | TGI (SK-MEL-28 melanoma): 38.2 µM | TGI (ACHN renal): 34.2 µM | TGI (UACC-257 melanoma): 36.5 µM | TGI (SNB-19 CNS): > 100 µM | TGI (MDA-MB-435): 42.2 µM | TGI (SW-620 colon): 77.3 µM | TGI (OVCAR-3 ovarian): 42.8 µM | TGI (CAKI-1 renal): 40.7 µM | TGI (SF-268 CNS): 51.9 µM | TGI (SK-MEL-2 melanoma): 34.6 µM | TGI (TK-10 renal): > 100 µM | TGI (786-0 renal): > 100 µM | TGI (SF-539 CNS): 48.8 µM | TGI (COLO 205 colon): 29.8 µM | TGI (T-47D breast): 41.2 µM | TGI (MALME-3M melanoma): 41.3 µM | TGI (HS 578T breast): > 100 µM | TGI (MDA-MB-231 breast): > 100 µM | TGI (MOLT-4 leukemia): 68.6 µM | TGI (DU-145 prostate): 60.4 µM | TGI (SK-MEL-5 melanoma): 28.6 µM | TGI (M14 melanoma): 40.3 µM | TGI (OVCAR-4 ovarian): 29.7 µM
